Laboratory results from US9783539B2, “Indoloquinolone compounds as anaplastic lymphoma kinase (ALK) inhibitors” (Jiangsu Ascentage Biomed Development Inc., priority 2014, dated 2017).
Several values for one entry are separate records, joined by “and”; a condition that tells them apart may be missing. Equal values may be shown once. Read-outs that look alike come from different tables or passages of the source.

Columns and labels:
[1] = target: wild-type human ALK protein (cytoplasmic domain, amino acid 1058-1620, GST-fusion) (Homo sapiens, UniProt Q9UM73); assay: biochemical; details: ALK IC50, wild-type ALK; 100 μM ATP
Chain of wild-type human ALK protein (cytoplasmic domain, amino acid 1058-1620, GST-fusion) (Q9UM73 1058-1620): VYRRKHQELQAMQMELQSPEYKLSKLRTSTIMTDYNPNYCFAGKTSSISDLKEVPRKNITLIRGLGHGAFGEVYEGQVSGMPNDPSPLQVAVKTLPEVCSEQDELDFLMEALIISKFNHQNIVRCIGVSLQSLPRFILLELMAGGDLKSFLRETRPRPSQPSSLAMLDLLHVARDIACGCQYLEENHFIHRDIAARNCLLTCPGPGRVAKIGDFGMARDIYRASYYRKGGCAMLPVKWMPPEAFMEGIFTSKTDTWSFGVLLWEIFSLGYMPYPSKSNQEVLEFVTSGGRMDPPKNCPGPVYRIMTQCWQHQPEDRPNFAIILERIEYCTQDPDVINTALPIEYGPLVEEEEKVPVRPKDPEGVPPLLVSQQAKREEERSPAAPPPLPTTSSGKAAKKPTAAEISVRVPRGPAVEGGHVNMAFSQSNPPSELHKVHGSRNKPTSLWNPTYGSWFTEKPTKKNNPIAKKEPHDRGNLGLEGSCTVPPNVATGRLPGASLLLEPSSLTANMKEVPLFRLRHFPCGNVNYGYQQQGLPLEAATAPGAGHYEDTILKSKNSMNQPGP
Description: Kinase activities of all enzymes were assessed using a Lance TR-FRET assay kit from Perkin Elmer Life Sciences (Waltham, Mass.). 2.5 μL of compound solution and 5 μL of protein solution were added into a black low volume 384 well microtiter plate which was incubated for 15 minutes with gentle shaking at room temperature, followed by adding 2.5 μL of fluorescently labeled peptide substrate (Ulight-[sequence]) and ATP mixture solution. The kinase reaction was performed in 50 mM HEPES (pH 7.5) with 1 mM EGTA, 1 mM MgCl2, and 2 mM DTT, 0.01% Tween-20 added right before the assay. […] The reaction was allowed to perform for 90 minutes in dark with gentle shaking at room temperature after which 10 μL of 20 mM EDTA and 2 nM Eu-W1024 anti-phosphotyrosine antibody (PT66) mixture solution in the detection buffer from the manufacturer was added to terminate the reaction and detect the phosphorylation of the peptide substrate. Final mixture was incubated in the dark for 1 hour before the plate was read on a Tecan Infinite M-1000 multi-mode plate reader (Tecan, Durham N.C.) with an excitation wavelength of 320 nm.

[2] = test system: Kappas-299 cells containing NPM-ALK fusion protein; assay: 4-day cell viability assay (CellTiter-Glo), Kappas-299; format: cell-based; details: inhibition of cell growth, 4 days, multiple values from independent experiments
Description: (§1) The effect of compounds on cell viability was determined in a 4-day proliferation assay. Cells were maintained in RPMI1640 culture medium with 10% FBS at 37° C. and an atmosphere of 5% CO2. […] Cells were seeded in 96-well plates at a density of 3,000-10,000 cells/well in 75 μl of culture medium. Compounds were serially diluted in the appropriate medium, and 75 μl of the diluted compounds were added to the appropriate wells of the cell plate. After the addition of compounds, the cells were incubated at 37° C. in an atmosphere of 5% CO2 for 4 days. Cell viability was determined using the CellTiter-Glo® Luminescent Cell Viability Assay Kit (Promega, Madison, Wis.) (for KARPAS-299 cells) or WST (2-(2-methoxy-4-nitrophenyl)-3-(4-nitrophenyl)-5-(2,4-disulfophenyl)-2H-tetrazolium, monosodium salt) Cell Counting-8 Kit (Dojindo Molecular Technologies, Inc., Rockville, Md.) (for H3122 cells) according to the manufacturers' instructions.
For CellTiter-Glo assay, 100 μl of CellTiter-Glo® Reagent was added to each well, and then the plates were incubated at room temperature for 10-20 minutes. The luminescent signal was measured using a Tecan Infinite M1000 multimode microplate reader (Tecan, Morrisville, N.C.). The readings were normalized to the DMSO-treated cells and the IC50 was calculated by nonlinear regression analysis using the GraphPad Prism 5 software.
Cells were treated for four days and cell growth was determined using a CellTiter-Glo assay.

[3] = test system: H3122 non-small cell lung cancer cell line harboring the EML4-ALK fusion gene; assay: 4-day cell viability assay (WST), H3122; format: cell-based; details: Homo sapiens, NCI-H3122, 96 h, 4 days, read-out: IC50 (nM) in Inhibition of Tumor Cell Growth H3122 Cell line
Description: as §1
For WST assay, WST-8 reagent was added to each well at a final concentration of 10% (v/v), and then the plates were incubated at 37° C. for 1-2 hours for color development. The absorbance was measured at 450 nm using a SPECTRAmax PLUS plate reader (Molecular Devices, Sunnyvale, Calif.). The readings were normalized to the DMSO-treated cells and the half maximal inhibitory concentration (IC50) was calculated by nonlinear regression analysis using the GraphPad Prism 5 software (GraphPad Software, La Jolla, Calif.).
Cells were treated for four days and cell growth was determined using a WST assay.

[4] = Pharmacokinetic parameters in SD rats, IV and PO; set-up: AUC(0-t): concentration or dose not given beside the values; details: Sprague-Dawley (SD), rat, in vivo; for bioavailability: po, read-out: Oral Bioavailability (F)
Source text: The pharmacokinetic (PK) parameters in SD rats for selected compounds with intravenous (IV) and oral (PO) administrations are provided in the following table (Table 5).

[5] = intravenous, read-out: AUC0-t IV
[6] = intravenous, read-out: t1/2 IV (converted)
[7] = oral, read-out: t1/2 PO (converted)

Work on `COc1cc2c(=O)c3c4ccc(C#N)cc4[nH]c3n(C)c2cc1N1CCC(N2CCOCC2)CC1` [ALK-22, 2-Methoxy-5-methyl-3-(4-morpholinopiperidin-1-yl)-11-oxo-6,11-dihydro-5H-indolo[2,3-b]quinoline-8-carbonitrile] yielded an IC50 [1] of 661 nM and an IC50 ([2]; NPM-ALK, 96 h) of 90.3 nM.

`COc1cc2c(=O)c3c4ccc(C#N)cc4[nH]c3n(C)c2cc1N1CCN(C)CC1` [ALK-23, 2-Methoxy-5-methyl-3-(4-methylpiperazin-1-yl)-11-oxo-6,11-dihydro-5H-indolo[2,3-b]quinoline-8-carbonitrile] gave an IC50 [1] of 309 nM.

`COc1cc2c(=O)c3c4ccc(C#N)cc4[nH]c3n(C(C)C)c2cc1N1CCC(N2CCOCC2)CC1` [ALK-25, 5-isoPropyl-2-methoxy-3-(4-morpholinopiperidin-1-yl)-11-oxo-6,11-dihydro-5H-indolo[2,3-b]quinoline-8-carbonitrile] gave an IC50 [1] of 17.8 nM and an IC50 ([2]; NPM-ALK, 96 h) of 137 nM.

Work on `CCC(CC)n1c2cc(N3CCN(C)CC3)c(OC)cc2c(=O)c2c3ccc(C#N)cc3[nH]c21` [ALK-40, 2-Methoxy-3-(4-methylpiperazin-1-yl)-11-oxo-5-(pentan-3-yl)-6,11-dihydro-5H-indolo[2,3-b]quinoline-8-carbonitrile] yielded an IC50 [1] of 29.7 nM and an IC50 ([2]; NPM-ALK, 96 h) of 415 nM.

For `COc1cc2c(=O)c3c4ccc(C#N)cc4[nH]c3n(CC(C)(C)C)c2cc1N1CCN(C)CC1` [ALK-43, 2-Methoxy-3-(4-methylpiperazin-1-yl)-5-neopentyl-11-oxo-6,11-dihydro-5H-indolo[2,3-b]quinoline-8-carbonitrile], the IC50 [1] was 28.5 nM, the IC50 ([2]; NPM-ALK, 96 h) was 266 nM and the IC50 [2] was 261 nM.

For `CCc1cc2c(=O)c3c4ccc(C#N)cc4[nH]c3n(C3CCC3)c2cc1N1CCN(C)CC1` [ALK-45, 5-cyclobutyl-2-ethyl-3-(4-methylpiperazin-1-yl)-11-oxo-6,11-dihydro-5H-indolo[2,3-b]quinoline-8-carbonitrile], the IC50 [1] was 1.8 nM and 5.1 nM, the IC50 ([2]; NPM-ALK, 96 h) was 35 nM and the IC50 [2] was 62 nM.

In the case of `C=Cc1cc2c(=O)c3c4ccc(C#N)cc4[nH]c3n(C(C)C)c2cc1N1CCN(C)CC1` [ALK-46, 5-isoPropyl-3-(4-methylpiperazin-1-yl)-11-oxo-2-vinyl-6,11-dihydro-5H-indolo[2,3-b]quinoline-8-carbonitrile], the IC50 [1] is reported as 1.8 nM and 1.5 nM, the IC50 ([2]; NPM-ALK, 96 h) is reported as 60 nM and the IC50 [2] is reported as 102 nM.

In the case of `CCc1cc2c(=O)c3c4ccc(C#N)cc4[nH]c3n(C3CCCC3)c2cc1N1CCN(C)CC1` [ALK-48, 5-Cyclopentyl-2-ethyl-3-(4-methylpiperazin-1-yl)-11-oxo-6,11-dihydro-5H-indolo[2,3-b]quinoline-8-carbonitrile], the IC50 [1] is reported as 15.1 nM, the IC50 ([2]; NPM-ALK, 96 h) is reported as 70 nM and the IC50 [2] is reported as 84 nM.

In the case of `CCc1cc2c(=O)c3c4ccc(C#N)cc4[nH]c3n(CC)c2cc1N1CCN(C)CC1` [ALK-49, 2,5-Diethyl-3-(4-methylpiperazin-1-yl)-11-oxo-6,11-dihydro-5H-indolo[2,3-b]quinoline-8-carbonitrile], the IC50 [1] is reported as 1.9 nM and 2.8 nM, the IC50 ([2]; NPM-ALK, 96 h) is reported as 317 nM and the IC50 [2] is reported as 546 nM.

Molecule `C=C(C)c1cc2c(=O)c3c4ccc(C#N)cc4[nH]c3n(C(C)C)c2cc1N1CCN(C)CC1` [ALK-51, 5-isoPropyl-3-(4-methylpiperazin-1-yl)-11-oxo-2-(prop-1-en-2-yl)-6,11-dihydro-5H-indolo[2,3-b]quinoline-8-carbonitrile] has an IC50 [1] of 20.5 nM, an IC50 ([2]; NPM-ALK, 96 h) of 70 nM and an IC50 [2] of 99 nM.

Molecule `CCOc1cc2c(=O)c3c4ccc(C#N)cc4[nH]c3n(C3CCCC3)c2cc1N1CCN(C)CC1` [ALK-54, 5-Cyclopentyl-2-ethoxy-3-(4-methylpiperazin-1-yl)-11-oxo-6,11-dihydro-5H-indolo[2,3-b]quinoline-8-carbonitrile] has an IC50 [1] of 24.7 nM and an IC50 ([2]; NPM-ALK, 96 h) of 63 nM.

Work on `CC(C)n1c2cc(N3CCN(C)CC3)c(OC(F)F)cc2c(=O)c2c3ccc(C#N)cc3[nH]c21` [ALK-59, 2-(Difluoromethoxy)-5-isopropyl-3-(4-methylpiperazin-1-yl)-11-oxo-6,11-dihydro-5H-indolo[2,3-b]quinoline-8-carbonitrile] yielded an IC50 [1] of 1.6 nM and an IC50 ([2]; NPM-ALK, 96 h) of 447 nM.

In the case of `COc1cc2c(=O)c3c4ccc(C#N)cc4[nH]c3n(C3CCC3)c2c(F)c1N1CCC(N2CCOCC2)CC1` [ALK-74, 5-Cyclobutyl-4-fluoro-2-methoxy-3-(4-morpholinopiperidin-1-yl)-11-oxo-6,11-dihydro-5H-indolo[2,3-b]quinoline-8-carbonitrile], the IC50 [1] is reported as 8.4 nM, the IC50 [3] is reported as 84 nM and the IC50 ([2]; NPM-ALK, 96 h) is reported as 98 nM.

In the case of `COc1cc2c(=O)c3c4ccc(C#N)cc4[nH]c3n(C3CCC3)c2c(F)c1N1CCN(C)CC1` [ALK-75, 5-Cyclobutyl-4-fluoro-2-methoxy-3-(4-methylpiperazin-1-yl)-11-oxo-6,11-dihydro-5H-indolo[2,3-b]quinoline-8-carbonitrile], the IC50 [1] is reported as 3.6 nM, the IC50 [3] is reported as 35.9 nM and the IC50 ([2]; NPM-ALK, 96 h) is reported as 22 nM.

`CCc1cc2c(=O)c3c4ccc(C#N)cc4[nH]c3n(C(C)C)c2cc1N1CCNCC1` [ALK-81, 2-Ethyl-5-isopropyl-11-oxo-3-(piperazin-1-yl)-6,11-dihydro-5H-indolo[2,3-b]quinoline-8-carbonitrile] showed an IC50 [1] of 0.1 nM and an IC50 ([2]; NPM-ALK, 96 h) of 440 nM.

Molecule `CCc1cc2c(=O)c3c4ccc(C#N)cc4[nH]c3n(C(C)C)c2cc1N1CCOCC1` [ALK-82, 2-Ethyl-5-isopropyl-3-morpholino-11-oxo-6,11-dihydro-5H-indolo[2,3-b]quinoline-8-carbonitrile] has an IC50 [1] of 2.3 nM and an IC50 ([2]; NPM-ALK, 96 h) of 46 nM.

`CCc1cc2c(=O)c3c4ccc(C#N)cc4[nH]c3n(C(C)C)c2cc1C1CCNCC1` [CJ-2204, 2-Ethyl-5-isopropyl-11-oxo-3-(piperidin-4-yl)-6,11-dihydro-5H-indolo[2,3-b]quinoline-8-carbonitrile] gave an IC50 [1] of 0.26 nM and an IC50 ([2]; NPM-ALK, 96 h) of 768 nM.

Work on `COc1cc2c(=O)c3c4ccc(C#N)cc4[nH]c3n(C(C)C)c2c(F)c1C1CCN(C)CC1` [CJ-2212, 4-Fluoro-5-isopropyl-2-methoxy-3-(1-methylpiperidin-4-yl)-11-oxo-6,11-dihydro-5H-indolo[2,3-b]quinoline-8-carbonitrile] yielded an AUC(0-t) [4, 5] of 574 ng·h/mL, a Cmax ([4]; intravenous, read-out: Cmax IV) of 169 ng/mL and a Tmax ([4]; intravenous, read-out: Tmax IV) of 0.083 h. For the same molecule, the half-life [4, 6] was 4.78 h, the AUC(0-t) ([4]; oral, read-out: AUC0-t PO) was 2060 ng·h/mL and the Cmax ([4]; oral, read-out: Cmax PO) was 208 ng/mL. It also gave a Tmax ([4]; oral, read-out: Tmax PO) of 5.33 h, a half-life [4, 7] of 4.08 h and a bioavailability [4] of 70.6%.

Work on `COc1cc2c(=O)c3c4ccc(C#N)cc4[nH]c3n(C(C)C)c2c(F)c1C1CCN(C2COC2)CC1` [CJ-2224, 4-Fluoro-5-isopropyl-2-methoxy-3-(1-(oxetan-3-yl)piperidin-4-yl)-11-oxo-6,11-dihydro-5H-indolo[2,3-b]quinoline-8-carbonitrile] yielded an AUC(0-t) [4, 5] of 2340 ng·h/mL, a Cmax ([4]; intravenous, read-out: Cmax IV) of 959 ng/mL and a Tmax ([4]; intravenous, read-out: Tmax IV) of 0.083 h. For the same molecule, the half-life [4, 6] was 4.71 h, the AUC(0-t) ([4]; oral, read-out: AUC0-t PO) was 9640 ng·h/mL and the Cmax ([4]; oral, read-out: Cmax PO) was 1170 ng/mL. The Tmax ([4]; oral, read-out: Tmax PO) was 0.67 h, the half-life [4, 7] was 3.86 h and the bioavailability [4] was 81.5%.

Work on `COc1cc2c(=O)c3c4ccc(C#N)cc4[nH]c3n(C(C)C)c2c(F)c1C1CCN(C(C)C)CC1` [CJ-2225, 4-Fluoro-5-isopropyl-3-(1-isopropylpiperidin-4-yl)-2-methoxy-11-oxo-6,11-dihydro-5H-indolo[2,3-b]quinoline-8-carbonitrile] yielded an AUC(0-t) [4, 5] of 1110 ng·h/mL, a Cmax ([4]; intravenous, read-out: Cmax IV) of 212 ng/mL and a Tmax ([4]; intravenous, read-out: Tmax IV) of 0.222 h. It also gave a half-life [4, 6] of 4.54 h, an AUC(0-t) ([4]; oral, read-out: AUC0-t PO) of 2340 ng·h/mL and a Cmax ([4]; oral, read-out: Cmax PO) of 225 ng/mL. For the same molecule, the Tmax ([4]; oral, read-out: Tmax PO) was 5.33 h, the half-life [4, 7] was 4.31 h and the bioavailability [4] was 41.7%.

With `COc1cc2c(=O)c3c4ccc(C#N)cc4[nH]c3n(C(C)C)c2c(F)c1C1CCN(C2CCOCC2)CC1` [CJ-2226, 4-Fluoro-5-isopropyl-2-methoxy-11-oxo-3-(1-(tetrahydro-2H-pyran-4-yl)piperidin-4-yl)-6,11-dihydro-5H-indolo[2,3-b]quinoline-8-carbonitrile] the AUC(0-t) [4, 5] was 1000 ng·h/mL, the Cmax ([4]; intravenous, read-out: Cmax IV) was 296 ng/mL and the Tmax ([4]; intravenous, read-out: Tmax IV) was 0.083 h. For the same molecule, the half-life [4, 6] was 4.37 h, the AUC(0-t) ([4]; oral, read-out: AUC0-t PO) was 2370 ng·h/mL and the Cmax ([4]; oral, read-out: Cmax PO) was 230 ng/mL. It also gave a Tmax ([4]; oral, read-out: Tmax PO) of 4.67 h, a half-life [4, 7] of 4.99 h and a bioavailability [4] of 47.3%.
